Measured values as given in a melting point compilation (Tetko et al.; mined from patent text by program, amines drawn as free bases though some values may be those of a salt).
Residues, ends and D or L forms follow the SMILES beside them. *: point of attachment. Boc = CC(C)(C)OC(=O)*; OBn = c1ccc(CO*)cc1; βAla = NCCC(=O)O

| SMILES | melting point [°C] |
| --- | --- |
| CCC1c2c(ncn2CC)CCN1C(=O)NC(C)C (centres undefined) | 155 |
| CCCCCCCCCCCCCCCC1CN(C(=O)c2cc(OC)c(OC)c(OC)c2)CCN1C(=O)c1cc(OC)c(OC)c(OC)c1 (centres undefined) | 68 |
| COc1ccc(-c2cc3cc(F)c(F)cc3[nH]2)cc1NCc1ccc([N+](=O)[O-])c(O)c1 | 170 to 171 |
| CCCCCC(=O)Nc1nc2c(ncn2CCC(CO)CO)c(=O)[nH]1 | 86 to 88 |
| O=C(O)CNc1ccc(Cl)c(Cl)c1 | 128 to 130 |
| CC(C)C1NS(=O)(=O)N(CCl)C1=O (centres undefined) | 71 to 72 |
| CC(C)N(c1nc(N)nc(-c2cc(Cl)ccc2Cl)n1)C(C)C | 158 to 159 |
| CCCO/N=C(\C(=O)OC)c1csc(N)n1 | 115 to 116 |
| Cc1cc(Br)cc2ccc(Cl)nc12 | 114 to 116 |
| Cn1cc(-c2cnc3[nH]c(=O)n(CC4CCOCC4)c3n2)cn1 | 224 to 226 |
| CC(C)COC[C@H](CC(C)C)NC(=O)[C@H]1O[C@@H]1C(=O)OC(C)(C)C | 73.5 to 74.5 |
| C=CCCn1cc([N+](=O)[O-])nc1Br | 28 to 30 |
| N#CC=C1CCN(c2ccc(N3C[C@@H](Cn4cc(C#N)nn4)OC3=O)cc2F)CC1 | 78 to 80 |
| CC(C)(C)c1cc(-c2nc3n(c2C#N)CCS3)cc(C(C)(C)C)c1O | 207 to 208 |
| O=C(O)c1cc(F)c(F)c(C(F)(F)F)c1F | 87 to 90 |
| COc1ccc(Nc2nc(NC3CCCCCC3)cc(N3CCC(O)CC3)n2)cc1Cl | 84 to 86 |
| Cc1nc(C(O)(c2nc(C)c(C)s2)C(C)C)sc1C | 169 to 171 |
| CC(=O)NCCCc1ccc(Cl)c2occc12 | 61 to 62 |
| Cc1ncc2cc(-c3c(Cl)cccc3Cl)c(N)nc2n1 | 287 to 289 |
| N#Cc1nn(-c2c(Cl)cc(Cl)cc2Cl)cc1C1CC1(Cl)Cl (centres undefined) | 158 |
| CCN(CC1OCCO1)c1c([N+](=O)[O-])cc(S(C)(=O)=O)cc1[N+](=O)[O-] | 125 to 127 |
| Cc1cc(-c2cccnc2)n2ncc(C(=O)c3ccccc3)c2n1 | 196 to 198 |
| NP(N)(=O)NC(=O)c1ccc(F)cc1 | 255 to 257 |
| CCCC1C(C(=O)OCC)C(O)(C(F)(F)F)NC(O)(C(F)(F)F)C1C(=O)OCC (centres undefined) | 140 to 142 |

| SMILES | melting point [°C] |
| --- | --- |
| C=C(CC)C(=O)c1ccc(OCC(=O)NCCCCF)c(Cl)c1Cl | 94 to 96 |
| COC(OC)C(=O)C=Cc1ccc(-c2cccs2)s1 | 74 |
| COc1c(C(=O)O)sc(C)c1C | 142 to 143 |
| Cc1[nH]c(-c2ccccc2F)c(C)c1C#N | 125 to 127 |
| O=C(NC/C=C\COc1cc(CN2CCCCC2)ccn1)c1ccc[nH]1 | 136 to 137 |
| Fc1ccc(C2CN(C(c3ccccc3)c3ccccc3)C2)cc1 | 65 to 66 |
| O=C(O)C=Cc1ccc(/C=C/c2ccncc2)cc1 | > 300 |
| CS(=O)(=O)Nc1cc(C(c2cc(F)ccc2F)S(=O)(=O)c2ccc(Cl)cc2)c(Cl)cn1 (centres undefined) | 220 to 222 |
| Cn1cc(CO)c(=O)c2cccc(Cl)c21 | 182 to 184 |
| O=[N+]([O-])c1cc(C(c2ccc(O)c([N+](=O)[O-])c2)(C(F)(F)F)C(F)(F)F)ccc1O | 119 to 122 |
| CS(=O)(=O)NC(=O)/C(C#N)=C/c1cn(-c2cc(C(F)(F)F)cc(C(F)(F)F)c2)nc1-c1cccc(Cl)c1 | 273 to 275 |
| CCC(=O)NC(=O)CCCCBr | 94 to 97 |
| CC(=O)Nc1ccc(S(=O)(=O)NCCCn2ccnc2)cc1 | 178 to 180 |
| CC(C)(C)OC(=O)N1CCn2c(c(C#N)c(Cl)c2C2CC2)C1 | 132 to 134 |
| O=c1c2ccccc2ccc2cc(Cl)ccc12 | 160 to 161 |
| Cc1cc(Cl)nnc1-c1ccccc1 | 122 |
| CN(c1ccccc1)S(=O)(=O)c1ccc(C#CC(C)(O)C(F)(F)F)cc1 (centres undefined) | 116 to 118 |
| COc1cc2cc(C=O)c(Cl)nc2cc1F | 180 |
| BrCCc1ccc([Si](c2ccccc2)(c2ccccc2)c2ccc(CCBr)cc2)cc1 | 220 |
| CC(C)(C)n1nc2c(S)ncnc2c1O | > 300 |
| CCOn1c(C(F)(F)F)nc2c([N+](=O)[O-])cc(C(F)(F)F)cc21 | 94 to 96 |
| O=C1CNc2ncc(I)cc2N1Cc1cccnc1Cl | 249 |
| CCCCCCCC1CCC(CC(C#N)c2ccc(Br)cc2)CC1 (centres undefined) | 56 to 57 |

Further lines, results first:

| melting point [°C] | SMILES |
| --- | --- |
| 118 to 120 | CC(C)(COC(=O)CCC(=O)O)Oc1ccc2c(c1)CCc1c-2ccc2c1CCC2(C)C |
| 97 to 98 | CCc1cc(OCc2ccc(-c3ccccc3-c3nnn(C(c4ccccc4)(c4ccccc4)c4ccccc4)n3)cc2)c2c(n1)CCN(C(C)=O)C2 |
| 202 to 204 | O=C(c1cnccn1)N1CCN(Cc2ccc3c(c2)Cc2c(-c4ccsc4)n[nH]c2-3)CC1 |
| 150 | CC(CN1CCCC1)N1c2ccccc2Sc2ccc(C(N)=S)cc21 (racemic) |
| 76 to 77 | CC(C)(COc1ccc(Cl)cc1)C(=O)COc1ccc(Cl)cc1 |
| 258 to 260 | CC1(c2ccc(S(N)(=O)=O)cc2)Cc2cc(OCC(=O)O)c(Cl)c(Cl)c2C1=O (centres undefined) |
| 95 to 96 | CCOC(=O)C(CCN1CCN(c2ncc(F)cn2)CC1)C(=O)c1ccc(F)cc1 (centres undefined) |
| 165 to 167 | COC(=O)c1ccc2[nH]c(-c3ccc(OC)c4nc(C)ccc34)nc2c1 |
| 152 to 153 | COC(=O)Nc1ccc(OCCn2ccnc2)cc1 |
| 305 to 308 | CC(C)c1nc(-c2ccc(-c3cnc4[nH]c(=O)n(CC5CCOCC5)c4n3)cc2)n[nH]1 |
| 92 to 94 | COc1cc(CCC(=O)CC(=O)CCc2ccc(O)c(OC)c2)ccc1O |
| > 320 | C=CCOc1ccc(-c2cc3[nH]c4c(c(=O)n3n2)CN(C2CCCCC2)C4=O)cc1 |
| 109 to 110 | COC(=O)C(C)(C)S(=O)(=O)N1CCC(c2ccc(-n3ccc(OC)n3)c(C)c2)CC1 |
| 31 | CCOC(=O)CCCOc1cccc2c1SCCC2 |
| 177 to 178 | COC(=O)c1ccccc1-n1c(CCl)nc2cccc(Cl)c2c1=O |
| 171 | O=C(O)c1nc2n(c(=O)c1OCc1ccccc1)CCOC2 |
| 124 to 126 | COCCNC(=O)c1cc(F)cc(-c2cccc3c(C)c(Cc4cccc(C(F)(F)F)c4)sc23)c1 |
| 109 to 110 | CCOC(=O)C(=CNc1ccc(F)c(F)c1OCC1CN(Cc2ccccc2)CCN1Cc1ccccc1)C(=O)OCC (centres undefined) |
| 100 to 102 | COc1cc([N+](=O)[O-])c2nccc(C)c2c1OCCCc1ccccc1 |
| 172 to 174 | CCOC(=O)N1CCN(C=C2C(=O)Nc3cc(OC)c(OC)cc32)CC1 |
| 132 to 133 | C=C1C=CC2CC1C(Cc1ccc(OC)cc1)NC2=O (centres undefined) |
| 134 to 135 | Cc1noc2cc3c(cc12)C1(CO3)C(=O)N(CC2CCCO2)c2ccccc21 (centres undefined) |
| 129 to 131 | CCc1cc(CC(=O)O)n(C)c1C(=O)c1ccc(Cl)cc1 |
| 194 to 196 | C[C@]1(COc2ccc3nc(N4CCC(=Cc5ccc(OC(F)(F)F)cc5)CC4)ccc3c2)Cn2cc([N+](=O)[O-])nc2O1 |
| 94 to 95 | COC(=O)c1ccc(CN2C(=O)C(CCO)Oc3ccccc32)cc1 (centres undefined) |
| 111 to 112 | C=CCOCN1C(C)=C(C(=O)OCC)C(c2cccc([N+](=O)[O-])c2)C(C(=O)OCC)=C1C |

| melting point [°C] | SMILES |
| --- | --- |
| 204 | CC(C)c1nc2c(C(F)(F)F)cccc2c(O)c1C(=O)O |
| 266 to 270 | CCCCc1nc(N)c(N=Nc2ccccc2)c(=O)[nH]1 |
| 110 | CON(C)C(=O)c1ccc2nc(Cl)nc(-c3cccc(Cl)c3)c2c1 |
| 45 to 47 | COC(=O)[C@H](Cc1c[nH]cn1)NC(=O)C(CCCCc1ccccc1)Cc1cccc2ccccc12 (some centres undefined) |
| 151 to 152 | CCCCc1ncc(CNC(Cc2cccs2)C(=O)O)n1Cc1ccc(C(=O)O)cc1 (centres undefined) |
| 162 to 164 | COc1cc(O)c2c(=O)c3ccccc3n(C)c2c1 |
| 158 to 160 | COc1cccc(Nc2ccnc(Nc3cc(NC(C)=O)c(OC)c(OC)c3)n2)c1 |
| 175 to 176 | CN(C)C(=O)n1cc2c(n1)-c1ccc(Cl)cc1C(c1ccccc1Cl)=NC2 |
| 141 | COc1ccc(-c2cc3cc(OC)cc([N+](=O)[O-])c3o2)cc1 |
| 230 to 231 | CNS(=O)(=O)N1CC2(CCN(C(=O)Nc3nnc(-c4ccccc4)s3)CC2)c2ccccc21 |
| 150 | CONC(=O)Cc1cccc(C(=O)c2ccc(Cl)cc2)c1C |
| 251 to 253 | NS(=O)(=O)c1ccc(NC(=O)Nc2c(F)c(F)c(F)c(F)c2F)cc1 |
| 144 to 145 | Cc1ccc2nc(C)c(=O)n(-c3ccc(Cl)cc3)c2c1 |
| 272 to 273 | CC1(C)Cc2c(c(N3CCOCC3)nc3sc4c(NCc5cnc6ccccc6c5)ncnc4c23)CO1 |
| 134 to 135 | COc1ccc(C2Sc3ccccc3N(CCN(C)C)C(=O)C2OC(C)=O)cc1 (centres undefined) |
| 124 to 125 | CC(C)(C)OC(=O)NCCC(=O)NC(CC(=O)OCc1ccccc1)C(=O)NC(Cc1ccccc1)C(=O)OCc1ccccc1 (centres undefined) ({Boc-βAla}-Asp(OBn)-Phe-OBn; configuration not given here) |
| 154 to 156 | COc1ccc2c(c1)C(NC(=O)OCc1ccccc1)C(=O)N2c1ccc(F)cc1 (centres undefined) |
| 209 to 210 | CC(=O)NC1CCc2c([nH]c3ccc(F)cc23)C1 (centres undefined) |
| 61 to 63 | CCOCCc1ccc(OCCNc2nc(C)nc(C)c2Cl)c(C)c1 |
| 229 to 230 | Cc1c([N+](=O)[O-])oc2ccc(-c3ccc(CC(=O)O)cc3)cc12 |
| 160 | CN1CCCC1=NC(=O)Nc1ccc(Cl)c(Cl)c1 |
| 219 to 221 | COc1ccc(Sc2cncc3sc(C(N)=O)cc23)cc1 |
| 185 | Cc1c(C(=O)Nc2ccc(N3CCN(CCN(C)C)CC3)c(C#N)c2)cnn1-c1ccc(F)cc1 |
| 175 to 178 | CC(C)Cn1cnc2c(N)nc3ccc(CCc4ccccc4)cc3c21 |
| 215 to 216 | Cc1ncc2c(n1)-c1ccc(Cl)cc1C(c1ccccc1Cl)=[N+]([O-])C2 |
| 65 to 66 | CCCCCCCCCCOc1cnc(-c2ccc(C(C)O)cc2)nc1 (single isomer, unassigned; (+)) |
